Test results as given in patent US8765774B2, “3-arylquinazolin-4-one compounds for combating invertebrate pests” (BASF SE, priority 2009, dated 2014).

What was measured:
Type in all cases: in vivo
[1] = test system: Cowpea Aphid (Aphis craccivora); test: Activity against cowpea aphid, sprayed potted cowpea plants (II.3); conditions: population reduction assessed after 72 hours, in comparison with untreated controls
Method: The active compounds were formulated in 50:50 (vol:vol) acetone:water. The test solution was prepared at the day of use.
Potted cowpea plants colonized with 100-150 aphids of various stages were sprayed after the pest population had been recorded. Population reduction was assessed after 72 hours.

[2] = test system: Kanzawa Spider Mite (Tetranychus kanzawai); test: Kanzawa spider mite, sprayed potted cotton plants (II.7.a); conditions: 300 ppm; population reduction assessed after 24, 72 and 120 hours; in comparison with untreated controls
Method: The active compounds were dissolved at the desired concentration in a mixture of 1:1 (vol:vol) acetone:water. The test solutions were prepared at the day of use.
Potted cotton plants colonized with approximately 50 mites of various stages were sprayed after the pest population had been recorded. Population reductions (or increases) after 24, 72 and 120 hours were assessed.

[3] = test system: Diamond Back Moth (Plutella xylostella); test: Diamond back moth, larvae sprayed with test solution (II.1.a); conditions: 500 ppm; third-instar larvae sprayed; mortality recorded 24, 72 and 120 hours after treatment; in comparison with untreated controls
Method: The active compound was dissolved at the desired concentration in a mixture of 1:1 (vol:vol) acetone:water. The test solution was prepared at the day of use.
Ten, third-istar larvae are sprayed with 1 ml test solution and introduced to untreated leaves held in a petri dish that was lined with moist filter paper. Mortality was recorded 24, 72 and 120 hours after treatment.

For `O=c1c2ccccc2ncn1-c1ccnc(SCC(F)(F)F)n1` [Compound I-6, 3-[2-(2,2,2-Trifluoro-ethylsulfanyl)-pyrimidin-4-yl]-3H-quinazolin-4-one], the mortality at 300 ppm [1] was no less than 50%.

With `Cc1cc(F)c(-n2cnc3ccccc3c2=O)cc1[S+]([O-])CC(F)(F)F` (stereo not shown) [Compound I-2, 2-(2,2,2-trifluoroethylsufinyl)-4-(4-oxo-quinazolin-3-yl)-5-fluoro-toluol] the mortality [2] was 100%.

Compound `Cc1cc(F)c(-n2c(C)nc3ccccc3c2=O)cc1SCC(F)(F)F` [Compound I-3, 2-(2,2,2-trifluoroethylsufanyl)-4-(2-methyl-4-oxo-quinazolin-3-yl)-5-fluoro-toluol] has a mortality [3] of 100%.

Work on `Cc1cc(F)c(-n2cnc3ccccc3c2=O)cc1SCC(F)(F)F` [Compound I-1, 2-(2,2,2-trifluoroethylsufanyl)-4-(4-oxo-quinazolin-3-yl)-5-fluoro-toluol] yielded a mortality [2] of 100%.
